Experimental data reported in patent US7635696B2, “Isoxazoline-indole derivatives with an improved antipsychotic and anxiolytic activity” (Janssen Pharmaceutica N.V., priority 2004, dated 2009).
Read-outs that look alike come from different tables or passages of the source.

How the values were obtained:
[1] = target: T1, human 5HT transporter (Homo sapiens, UniProt P31645); assay: Binding experiment for 5-HT transporter ([3H]Paroxetine)
T1 construct: host or cells: HEK cells
Method: (§1) The interaction of the compounds of Formula (I) with dopamine-receptors, h5HT-transporter and h5HT1A receptor was assessed in in vitro radioligand binding experiments. In general, a low concentration of a radioligand with a high binding affinity for a particular receptor or transporter is incubated with a sample of a tissue preparation enriched in a particular receptor or transporter or with a preparation of cells expressing cloned human receptors in a buffered medium. During the incubation, the radioligand binds to the receptor or transporter. When equilibrium of binding is reached, the receptor bound radioactivity is separated from the non-bound radioactivity, and the receptor- or transporter-bound activity is counted. The interaction of the test compounds with the receptor is assessed in competition binding experiments. Various concentrations of the test compound are added to the incubation mixture containing the receptor- or transporter preparation and the radioligand. The test compound in proportion to its binding affinity and its concentration inhibits binding of the radioligand.
Frozen human 5HT transporter-transfected HEK cells (Perkin Elmer, Brussels) were thawed and briefly homogenised using an Ultra-Turrax T25 homogeniser prior to dilution to an appropriate protein concentration optimised for specific and non-specific binding. [^3H]Paroxetine (NEN, specific activity 20 Ci/mmol) was diluted in Tris-HCl assay buffer containing NaCl and KCl (50 mM, 120 mM and 5 mM, respectively; pH 7.4) at a concentration of 5 nmol/L. Prepared radioligand (25 μl) was then incubated (60 min, 25° C.) with membrane preparations (200 μl) and with 25 μl of either 10% DMSO control, Inipramine (10^−6 mol/L final concentration), or compound of interest. Membrane-bound activity was detected by filtration through a Packard Filtermate harvester onto Unifilterplates pre-soaked in 0.1% PEI, washing with ice-cold assay buffer (3×4 ml). Filters were dried prior to addition of scintillation fluid and then counting in a Topcount scintillation counter. % Specific bound and competition binding curves were calculated using S-Plus software (Insightful).

[2] = target: T2, Human 5HT1A receptor (Homo sapiens, UniProt P08908); assay: Binding experiment for 5-HT1A receptor ([3H]8OHDPAT)
T2 construct: expressed in transfected cells; host or cells: L929 cells (stably transfected)
T2 sequence (P08908 1-422): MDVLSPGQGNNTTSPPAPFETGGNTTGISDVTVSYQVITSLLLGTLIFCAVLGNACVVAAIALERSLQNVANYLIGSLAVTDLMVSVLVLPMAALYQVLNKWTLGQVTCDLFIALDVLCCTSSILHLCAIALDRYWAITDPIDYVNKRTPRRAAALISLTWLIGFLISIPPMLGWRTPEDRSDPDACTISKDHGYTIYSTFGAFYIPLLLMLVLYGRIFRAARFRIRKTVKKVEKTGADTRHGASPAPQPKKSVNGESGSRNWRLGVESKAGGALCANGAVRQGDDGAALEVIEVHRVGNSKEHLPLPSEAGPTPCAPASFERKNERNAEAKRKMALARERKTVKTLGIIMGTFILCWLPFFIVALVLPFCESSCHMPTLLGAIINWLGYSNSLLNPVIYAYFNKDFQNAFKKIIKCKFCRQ
Method: as §1
Human 5HT1A receptor-transfected L929 cells were collected by scraping into ice-cold Tris-HCl buffer (50 mM, pH 7.4). The suspension was centrifuged (23 500×g, 10 min, 4° C.) and pellets stored at −70° C. until required. They were then thawed and briefly homogenised using an Ultra-Turrax T25 homogeniser prior to dilution to an appropriate protein concentration optimised for specific and non-specific binding. [^3H]80HDPAT (NEN, specific activity 127 Ci/mmol) was diluted in Tris-HCl assay buffer containing CaCl2 (50 mM and 4 mM, respectively; pH 7.7) at a concentration of 5 nmol/L. Prepared radioligand (50 μl) was then incubated (30 min, 37° C.) with membrane preparations from L929 cells stably-transfected with the h5HT1A gene construct (400 μl) and with 50 μl of either the 10% DMSO control, spiroxatrine (10^−6 mol/L final concentration), or compound of interest. Membrane-bound activity was detected by filtration through a Packard Filtermate harvester onto Unifilterplates, washing with ice-cold Tris-HCl buffer (3×4 ml), followed by drying. Scintillation fluid was added and membranes were counted in a Topcount scintillation counter. % Specific bound and competition binding curves were calculated using S-Plus software (Insightful).

[3] = target: T3, Human Dopamine D2L receptor (Homo sapiens, UniProt P14416); assay: Binding experiment for dopamine D2 receptor ([3H]Spiperone); conditions: D2L-transfected CHO cell membranes; for IC50: read-out: pIC50 D2 (converted)
T3 construct: expressed in transfected cells; host or cells: CHO cells
T3 sequence (P14416 whole entry): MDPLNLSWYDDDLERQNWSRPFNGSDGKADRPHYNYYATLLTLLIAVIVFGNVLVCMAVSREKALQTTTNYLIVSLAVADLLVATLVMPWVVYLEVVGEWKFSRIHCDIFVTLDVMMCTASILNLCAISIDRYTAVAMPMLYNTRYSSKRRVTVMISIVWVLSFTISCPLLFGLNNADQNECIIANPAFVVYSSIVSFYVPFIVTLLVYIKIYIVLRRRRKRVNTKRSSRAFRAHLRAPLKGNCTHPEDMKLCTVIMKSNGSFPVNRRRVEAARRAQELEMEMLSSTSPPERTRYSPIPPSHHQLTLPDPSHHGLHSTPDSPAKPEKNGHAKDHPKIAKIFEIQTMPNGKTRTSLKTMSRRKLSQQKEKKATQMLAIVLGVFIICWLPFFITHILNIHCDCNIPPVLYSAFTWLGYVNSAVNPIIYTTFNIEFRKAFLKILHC
Method: as §1
Human Dopamine D2L receptor-transfected CHO cells were collected by scraping into ice-cold Tris-HCl buffer (50 mM, pH 7.4). The suspension was centrifuged (23 500×g, 10 min, 4° C.) and pellets stored at −70° C. until required. They were then thawed and briefly homogenised using an Ultra-Turrax T25 homogeniser prior to dilution to an appropriate protein concentration optimised for specific and non-specific binding. [^3H]Spiperone (NEN, specific activity ˜70 Ci/mmol) was diluted in Tris-HCl assay buffer containing NaCl, CaCl2, MgCl2, KCl (50, 120, 2, 1, and 5 mM respectively, adjusted to pH 7.7 with HCl) at a concentration of 2 nmol/L. Prepared radioligand (50 μl) was then incubated (30 min, 37° C.) with membrane preparations pre-diluted to an appropriate protein concentration (400 μl), and with 50 μl of either the 10% DMSO control, Butaclamol (10^−6 mol/L final concentration), or compound of interest. Membrane-bound activity was detected by filtration through a Packard Filtermate harvester onto Unifilterplates, washing with ice-cold Tris-HCl buffer (50 mM; pH8.0; 3×4 ml). Filters were allowed to dry before adding scintillation fluid and counting in a Topcount scintillation counter. % Specific bound and competition binding curves were calculated using S-Plus software (Insightful).

[4] = target: T4, Human Dopamine D3 receptor (Homo sapiens, UniProt P35462); assay: Binding experiment for dopamine D3 receptor ([125I]Iodosulpride); conditions: transfected CHO cell membranes; for IC50: read-out: pIC50 D3 (converted)
T4 construct: expressed in transfected cells; host or cells: CHO cells
T4 sequence (P35462 whole entry): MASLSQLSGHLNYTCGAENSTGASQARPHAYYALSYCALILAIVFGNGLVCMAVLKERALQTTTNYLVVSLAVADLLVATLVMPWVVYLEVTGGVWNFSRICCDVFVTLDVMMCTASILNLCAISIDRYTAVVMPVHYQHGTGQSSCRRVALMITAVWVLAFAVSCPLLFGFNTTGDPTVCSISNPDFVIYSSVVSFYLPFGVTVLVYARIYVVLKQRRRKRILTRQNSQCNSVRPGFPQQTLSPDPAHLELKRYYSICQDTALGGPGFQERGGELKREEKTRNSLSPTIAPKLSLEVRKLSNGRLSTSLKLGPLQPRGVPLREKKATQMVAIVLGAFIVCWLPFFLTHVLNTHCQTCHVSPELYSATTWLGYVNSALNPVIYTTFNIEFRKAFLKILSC
Method: as §1
Human Dopamine D3 receptor-transfected CHO cells were collected by scraping into ice-cold Tris-HCl buffer (50 mM, pH 7.4). The suspension was centrifuged (23 500×g, 10 min, 4° C.) and pellets stored at −70° C. until required. They were then thawed and briefly homogenised using an Ultra-Turrax T25 homogeniser prior to dilution to an appropriate protein concentration optimised for specific and non-specific binding. [^125I]Iodosulpride (Amersham, specific activity 2000 Ci/mmol) was diluted in Tris-HCl assay buffer containing NaCl, CaCl2, MgCl2, KCl and BSA (50, 120, 2, 1, 5 mM, 0.1% respectively, adjusted to pH 7.7 with HCl) at a concentration of 2 nmol/L. Prepared radioligand (20 μl) was incubated (60 min, RT) and with 20 μl of either the 10% DMSO control, Risperidone (10^−6 mol/L final concentration), or compound of interest, then with membrane preparations (80 μl). Overnight incubation followed after addition of WGA-coated PVT SPA beads (250 μl; Amersham) and membrane-bound counts measured in a Wallac Microbeta. % Specific bound and competition binding curves were calculated using S-Plus software (Insightful).

[5] = transfected HEK cell membranes, [3H]Paroxetine
[6] = transfected L929 cell membranes, [3H]8OHDPAT
[7] = transfected HEK cell membranes, [3H]Paroxetine, read-out: pIC50 5HTT (converted)
[8] = transfected L929 cell membranes, [3H]8OHDPAT, read-out: pIC50 5-HT1A (converted)

T1 sequence (P31645 whole entry): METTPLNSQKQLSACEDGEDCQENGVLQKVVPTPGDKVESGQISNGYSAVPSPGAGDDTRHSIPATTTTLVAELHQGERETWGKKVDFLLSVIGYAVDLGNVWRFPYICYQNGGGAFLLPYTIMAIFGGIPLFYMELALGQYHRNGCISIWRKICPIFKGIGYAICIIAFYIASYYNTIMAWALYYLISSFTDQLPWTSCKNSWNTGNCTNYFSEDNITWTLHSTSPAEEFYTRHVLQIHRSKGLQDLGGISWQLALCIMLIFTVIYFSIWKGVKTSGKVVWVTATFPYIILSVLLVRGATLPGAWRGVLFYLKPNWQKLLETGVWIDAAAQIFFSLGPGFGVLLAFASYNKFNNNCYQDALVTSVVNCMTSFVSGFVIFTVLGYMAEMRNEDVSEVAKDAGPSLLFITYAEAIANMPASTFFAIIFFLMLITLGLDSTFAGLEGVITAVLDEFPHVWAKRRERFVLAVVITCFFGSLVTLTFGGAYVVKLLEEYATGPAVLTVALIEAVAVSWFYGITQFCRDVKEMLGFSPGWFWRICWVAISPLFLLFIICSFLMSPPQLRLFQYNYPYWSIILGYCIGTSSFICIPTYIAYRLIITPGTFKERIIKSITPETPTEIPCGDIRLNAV

SMILES	pIC50 5HTT [1, 5]	pIC50 5-HT1A [2, 6]	pIC50 D2 [3]	pIC50 D3 [4]	IC50 [1, 7] [nM]	IC50 [2, 8] [nM]	IC50 [3] [nM]	IC50 [4] [nM]	IC50 [1] [nM]	IC50 [2] [nM]
COc1cc2c(cc1OC)C1=NOC(CN3CC=C(c4c[nH]c5ccccc45)CC3)C1CO2 (single isomer, unassigned) [Compound 6]	7.1	6.6	<6	6.2	–	–	–	–	–	–
Fc1ccc2[nH]cc(C3=CCN(CC4ON=C5c6cc7c(cc6OCC54)OCCO7)CC3)c2c1 (single isomer, unassigned) [Compound 28]	7.8	8.6	6.3	6.2	–	–	–	–	–	–
COc1cc2c(cc1OC)C1=NOC(CNCCCc3c[nH]c4ccc(F)cc34)C1CO2 (single isomer, unassigned) [Compound 5]	7.2	>9	6.6	7.0	–	–	–	–	–	–
COc1cc2c(cc1OC)C1=NOC(CN3CC=C(c4c[nH]c5ccc(F)cc45)CC3)C1CO2 (racemic) [Compound 1]	–	–	–	–	15.8	31.6	398	126	–	–
COc1cc2c(cc1OC)C1=NOC(CN3CC=C(c4c[nH]c5ccccc45)CC3)C1CO2 (single isomer, unassigned) [Compound 14]	7.5	8.3	6.8	6.5	–	–	–	–	–	–
COc1cc2c(cc1OC)C1=NOC(CN3CCC(c4c[nH]c5ccc(F)cc45)CC3)C1CO2 (single isomer, unassigned) [Compound 15]	7.1	7.2	6.1	6.4	–	–	–	–	–	–
COc1cc2c(cc1OC)C1=NOC(CNCCCc3c[nH]c4ccc(F)cc34)C1CO2 (single isomer, unassigned) [Compound 4]	7.8	8.6	6.1	6.7	–	–	–	–	–	–
COc1cc2c(cc1OC)C1=NOC(CN3CCC(c4c[nH]c5ccc(F)cc45)CC3)C1CO2 (single isomer, unassigned) [Compound 11]	6.9	8.9	7.2	7.2	–	–	–	–	–	–
COc1cc2c(cc1OC)C1=NOC(CN3CC=C(c4c[nH]c5ccc(Br)cc45)CC3)C1CO2 (racemic) [Compound 10]	6.7	8.3	6.3	6.5	–	–	–	–	–	–
COc1cc2c(cc1OC)C1=NOC(CN3CC=C(c4c[nH]c5cccc(F)c45)CC3)C1CO2 (single isomer, unassigned) [Compound 13]	7.7	8.7	6.2	6.8	–	–	–	–	–	–
COc1cc2c(cc1OC)C1=NOC(CN3CC=C(c4c[nH]c5ccc(-c6ccccc6)cc45)CC3)C1CO2 (racemic) [Compound 22]	–	–	–	–	2510	25.1	3980	3160	–	–
COc1cc2c(cc1OC)C1=NOC(CN3CCC(c4c[nH]c5ccc(N)cc45)CC3)C1CO2 (racemic) [Compound 20]	5.4	7.6	6.2	<6	–	–	–	–	–	–
COc1cc2c(cc1OC)C1=NOC(CN3CCC(c4c[nH]c5c(F)cccc45)CC3)C1CO2 (racemic) [Compound 30]	6.5	7.4	6.0	6.4	–	–	–	–	–	–
COc1cc2c(cc1OC)C1=NOC(CN3CC=C(c4c[nH]c5ccc(C)cc45)CC3)C1CO2 (racemic) [Compound 18]	7.0	8.2	6.4	6.4	–	–	–	–	–	–
COc1cc2c(cc1OC)C1=NOC(CN3CC=C(c4c[nH]c5ccc(C#N)cc45)CC3)C1CO2 (racemic) [Compound 23]	7.4	8.2	6.1	6.8	–	–	–	–	–	–
COc1cc2c(cc1OC)C1=NO[C@@H](CN3CC=C(c4cn(C)c5ccccc45)CC3)[C@@H]1CO2 (single isomer, unassigned) [Compound 34]	–	–	–	–	–	–	2000	–	63.1	20
